Measured values reported in publication PMC6452685, “Lysyl-tRNA synthetase as a drug target in malaria and cryptosporidiosis” (Proceedings of the National Academy of Sciences of the …, 2019).
≈ marks a conversion by molar mass, not a printed value.

Columns and labels:
FaSSIF solubility = assay type: physicochemical; details: 37 °C, thermodynamic from solid; FaSSIF pH 6.5
Protocol: 4.1 Aque ous s olubilit y
Compounds were subject to serial dilution from 10 mM to 0.47 mM in DMSO. An al i quot was then mi xed wi th Mi l li Q water to obtai n a n aq ueous di l uti on pl ate wi th a fi na l concentrati on rang e of 250 - 13 µM, with a final DMSO concentration of 2. 5 % (v /v ). Triplicate al i quots were transferred to a fl at bottomed pol ystyrene pl ate whi ch was i mmedi ately read o n the NEPHELOstar (BMG Lab Techn ol ogi es). […]
Drug dissolution in biorelevant media which simulates the liquid environment within the upper […]
into the blood stream and is more a more accurate determination of oral d os e s ol ubi li t y t han si mple aqueous sol ubi l i ty performed at neutral pH and wi thout any associ ated bil e aci ds and fats. This method i s based on that of Fagerberg et al. (16) where the FaSSIF has pH 6.5 a nd c ontains 3 mM sodium taurocholate and 0.7 5 mM lectithin. FaSSIF blank only has pH 6.5 and is devoid of salts and […]
[…] The sampl e i s then centri fuged at 10,00 0 rpm for 3 mi n befo re th e supernatant i s subject to HPLC analysis at 254 nm UV detecti on wavel ength. Typi call y, 10 µ l supernatant injections are suffi ci ent to achi eve peak areas whi ch fal l wi thi n the 6 p oi nt standar d curv e of anal y te concentrati ons i njected onto the col umn, al thoug h thi s may be i ncreas ed up to 40 µl for more insoluble compounds where necessary. […]

[1] = test system: P. falciparum stage V gametocytes; assay: P. falciparum stage V gametocytes; assay type: cell-based; details: Plasmodium falciparum
Protocol: Thi s is a modification of the previously reported method (13). Asexual P. falciparum paras i t es (NF54) from a cl one G 3 w ere g row n at 5% hemat ocri t i n O+ human ery t hrocy t es i n s erum-contai ni ng compl ete medi a (RPMI 1640, g entami ci n 0. 05 mg /ml , hy pox anthi ne 0. 05 mg/ml, HEPES 38.4 mM , sodium bicarbonate 0.2% [w/v], D-glucose 0.2% [w/v], sodium hydroxide 3.4 mM, 11.9% [w/v] heat-inactivated human serum [O+] and at 37 °C un de r l ow-ox y g en con di t i ons (3% O2, 5% C O2, and 92% N2) and a paras i temi a between 0. 5% and 3%. Ri ng-stage parasites were synchronized at 3%
paras i t aemi a (d-6) w i t h 5% (w /v ) D-Sorbi tol . On day −4, 45ml of compl ete medi a was added to the
cul ture fl as k to s tres s vi a hematocri t drop now at 2. 5%. The o n d-3 an d d-2 onl y 45 ml o f the medi a
was substituted for fres h medi a.

[2] = target: human ether-à-go-go related gene (hERG) K+ channel (Homo sapiens, UniProt Q12809); assay: hERG K+ channel assay (IonWorks patch clamp); assay type: cell-based
C. parvum Iowa strain = assay: In vitro inhibition of Cryptosporidium, C. parvum Iowa in HCT-8 cells (imaging); assay type: cell-based; details: HCT-8, read-out: C. parvum Iowa strain EC50
Pf(TM90C2B) = assay: Drug resistant P. falciparum TM90C2B, [3H]-hypoxanthine incorporation; assay type: cell-based; details: Plasmodium falciparum, atovaquone-resistant
From the text: (§1) 3.2 Cytotoxicity Studies (Dundee)
(§2) In vi t ro cy totox i ci ty s tudies can be ca rri ed out us i ng Hep G 2 (Human C aucas i an hepatocy te ca rci noma, ECACC cat. no. 850 114 30) us ed as i ndi cators f or g eneral mammal i an cel l tox i ci ty . […]
(§3) 3.3 In vitro Cell Assay D ata Analysis (Du ndee) […]
(§4) as 0%. Qual i ty control c ri teri a for passi ng pl ates were as fol l ow s : Z’ > 0.
(§5) < 15 . T he f ormula used to calculate Z’ is 1- 3´ (St D e v _ hi gh + St D e v_ low) . […]
(§6) Al l EC50 Curve fitti ng was undertaken usi ng XLFi t versi on 4.2 usi ng Model 205 wi th the foll owi ng 4 paramet ri c equat i on: A + (?-A) ,where A=% i nhi bi ti on at bo ttom, B=% i nhi bi ti on at top, C= EC , […]
(§7) D= slope, x= inhibitor concentration a nd y= % inhibition. […]
(§8) was fixed to 100 only when at least 50% of inhibition was reached. […]
(§9) Hoffmann-La Ro che Ltd) a nd resi stant strai ns K1 and TM90C2B (fr om the Malaria Research an d Reference Reag ent Res ou rce C enter, accu rate d es cri pti ons of the g eneti c backg roun ds of thes e strains can be obtained at http://www.beiresources.org) were cultivated in a variation of the medium prev i ous l y des cri bed (5, 6), c onsi sti ng of RPMI 16 40 su ppl emented wi th 0.5% ALBUMAX® II, 25 m M Hepes , 25 mM NaHC O3 (pH 7. […] The re s ul t s were recorded and expressed as a percentage of the untreated controls. […]

Pf(NF54) = assay: Drug-sensitive P. falciparum NF54, [3H]-hypoxanthine incorporation; assay type: cell-based; details: Plasmodium falciparum, drug-sensitive strain
From the text: as §1, §2, §3, §4, §5, §6, §7, §8, §9

Chain of human ether-à-go-go related gene (hERG) K+ channel (Q12809 whole entry): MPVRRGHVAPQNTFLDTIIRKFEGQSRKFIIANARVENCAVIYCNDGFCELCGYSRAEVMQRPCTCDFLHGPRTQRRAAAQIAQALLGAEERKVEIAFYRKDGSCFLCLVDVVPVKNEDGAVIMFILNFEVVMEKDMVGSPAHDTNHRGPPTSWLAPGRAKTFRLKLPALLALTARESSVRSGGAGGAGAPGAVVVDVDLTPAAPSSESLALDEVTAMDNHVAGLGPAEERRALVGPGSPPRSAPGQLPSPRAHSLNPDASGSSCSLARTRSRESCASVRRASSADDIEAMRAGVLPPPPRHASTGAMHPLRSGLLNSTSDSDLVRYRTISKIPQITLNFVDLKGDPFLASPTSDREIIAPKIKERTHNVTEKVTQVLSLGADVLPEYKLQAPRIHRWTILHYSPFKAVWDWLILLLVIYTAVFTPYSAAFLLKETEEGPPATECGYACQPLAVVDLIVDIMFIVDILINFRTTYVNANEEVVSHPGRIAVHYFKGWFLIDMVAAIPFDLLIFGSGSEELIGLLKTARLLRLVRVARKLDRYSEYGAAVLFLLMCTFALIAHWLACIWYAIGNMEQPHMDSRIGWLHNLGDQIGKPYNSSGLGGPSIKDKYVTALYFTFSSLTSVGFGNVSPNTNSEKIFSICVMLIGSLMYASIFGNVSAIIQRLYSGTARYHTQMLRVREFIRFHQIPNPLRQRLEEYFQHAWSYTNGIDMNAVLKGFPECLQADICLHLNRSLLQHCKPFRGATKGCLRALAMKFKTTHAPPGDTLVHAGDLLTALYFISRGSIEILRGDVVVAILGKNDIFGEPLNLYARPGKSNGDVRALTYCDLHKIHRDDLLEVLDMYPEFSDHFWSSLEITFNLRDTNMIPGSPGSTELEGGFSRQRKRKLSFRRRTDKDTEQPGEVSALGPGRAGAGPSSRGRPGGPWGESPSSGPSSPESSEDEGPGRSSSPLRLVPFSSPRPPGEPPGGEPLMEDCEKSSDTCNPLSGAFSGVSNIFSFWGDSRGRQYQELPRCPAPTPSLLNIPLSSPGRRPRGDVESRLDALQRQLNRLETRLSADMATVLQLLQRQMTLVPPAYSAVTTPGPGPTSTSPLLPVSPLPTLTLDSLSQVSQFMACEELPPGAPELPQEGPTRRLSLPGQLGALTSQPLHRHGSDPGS

## O=C(NCC1(O)CCC(F)(F)CC1)c1cc(=O)c2cc(F)ccc2o1 [Compound 5]
FaSSIF solubility
  solubility at 5 h: 255 µM (≈ 90.6 µg/mL)
[1]
  EC50: 9.9 µM
[2]
  EC50: > 100 µM
C. parvum Iowa strain
  EC50: 1300 nM
Pf(TM90C2B)
  EC50: 520 nM
Pf(NF54)
  EC50: 390 nM
